Data as given in ChEMBL document CHEMBL3826915, “Design and comparative anticonvulsant activity assessment of CNS-active alkyl-carbamoyl imidazole derivatives” (Bioorg Med Chem, 2016).
Calls of active or inactive are those of the source. The rule behind the calls is not given here.

What was measured:
[1] = test system: Mus musculus; experiment: Anticonvulsant activity in albino CF1 mouse assessed as protection against maximal electroshock-induced seizures at 30 mg/kg, ip after 0.5 hrs; format: functional, organism-based
[2] = test system: Mus musculus; experiment: Anticonvulsant activity in albino CF1 mouse assessed as protection against maximal electroshock-induced seizures at 300 mg/kg, ip after 0.5 hrs; format: functional, organism-based
[3] = test system: Mus musculus; experiment: Anticonvulsant activity in albino CF1 mouse assessed as protection against maximal electroshock-induced seizures at 30 mg/kg, ip after 2 hrs; format: functional, organism-based
[4] = test system: Mus musculus; experiment: Anticonvulsant activity in albino CF1 mouse assessed as protection against maximal electroshock-induced seizures at 100 mg/kg, ip after 2 hrs; format: functional, organism-based
[5] = test system: Mus musculus; experiment: Anticonvulsant activity in albino CF1 mouse assessed as protection against maximal electroshock-induced seizures at 300 mg/kg, ip after 2 hrs; format: functional, organism-based
[6] = test system: Mus musculus; experiment: Anticonvulsant activity in albino CF1 mouse assessed as protection against 32 mA current-induced seizure at 30 mg/kg, ip after 0.5 hrs by 6 Hz psychomotor test; format: functional, organism-based
[7] = test system: Mus musculus; experiment: Anticonvulsant activity in albino CF1 mouse assessed as protection against 32 mA current-induced seizure at 100 mg/kg, ip after 0.5 hrs by 6 Hz psychomotor test; format: functional, organism-based
[8] = test system: Mus musculus; experiment: Anticonvulsant activity in albino CF1 mouse assessed as protection against 32 mA current-induced seizure at 300 mg/kg, ip after 0.5 hrs by 6 Hz psychomotor test; format: functional, organism-based
[9] = test system: Mus musculus; experiment: Anticonvulsant activity in albino CF1 mouse assessed as protection against 32 mA current-induced seizure at 30 mg/kg, ip after 2 hrs by 6 Hz psychomotor test; format: functional, organism-based
[10] = test system: Mus musculus; experiment: Anticonvulsant activity in albino CF1 mouse assessed as protection against 32 mA current-induced seizure at 100 mg/kg, ip after 2 hrs by 6 Hz psychomotor test; format: functional, organism-based
[11] = test system: Mus musculus; experiment: Anticonvulsant activity in albino CF1 mouse assessed as protection against 32 mA current-induced seizure at 300 mg/kg, ip after 2 hrs by 6 Hz psychomotor test; format: functional, organism-based
[12] = test system: Mus musculus; experiment: Neurotoxicity in albino CF1 mouse assessed as behavioral impairment at 30 mg/kg, ip after 0.5 hrs by rotorod test; format: toxicity, organism-based; conditions: in vivo
[13] = test system: Mus musculus; experiment: Neurotoxicity in albino CF1 mouse assessed as behavioral impairment at 30 mg/kg, ip after 2 hrs by rotorod test; format: toxicity, organism-based; conditions: in vivo
[14] = test system: Mus musculus; experiment: Neurotoxicity in albino CF1 mouse assessed as behavioral impairment at 100 mg/kg, ip after 2 hrs by rotorod test; format: toxicity, organism-based; conditions: in vivo
[15] = test system: Rattus norvegicus; experiment: Anticonvulsant activity in albino Sprague-Dawley rat assessed as protection against maximal electroshock-induced seizures at 30 mg/kg, po after 0.5 hrs; format: functional, organism-based
[16] = test system: Rattus norvegicus; experiment: Anticonvulsant activity in albino Sprague-Dawley rat assessed as protection against maximal electroshock-induced seizures at 30 mg/kg, po after 1 hr; format: functional, organism-based
[17] = test system: Rattus norvegicus; experiment: Anticonvulsant activity in albino Sprague-Dawley rat assessed as protection against maximal electroshock-induced seizures at 30 mg/kg, po after 2 hrs; format: functional, organism-based
[18] = test system: Rattus norvegicus; experiment: Neurotoxicity in albino Sprague-Dawley rat assessed as behavioral impairment at 30 mg/kg, ip after 0.25 hrs by rotorod test; format: toxicity, organism-based; conditions: in vivo
[19] = test system: Rattus norvegicus; experiment: Neurotoxicity in albino Sprague-Dawley rat assessed as behavioral impairment at 30 mg/kg, po after 0.25 hrs by rotorod test; format: toxicity, organism-based; conditions: in vivo
[20] = test system: Rattus norvegicus; experiment: Neurotoxicity in albino Sprague-Dawley rat assessed as behavioral impairment at 30 mg/kg, ip after 0.5 hrs by rotorod test; format: toxicity, organism-based; conditions: in vivo
[21] = test system: Rattus norvegicus; experiment: Neurotoxicity in albino Sprague-Dawley rat assessed as behavioral impairment at 30 mg/kg, po after 0.5 hrs by rotorod test; format: toxicity, organism-based; conditions: in vivo
[22] = test system: Rattus norvegicus; experiment: Neurotoxicity in albino Sprague-Dawley rat assessed as behavioral impairment at 30 mg/kg, ip after 1 hr by rotorod test; format: toxicity, organism-based; conditions: in vivo
[23] = test system: Rattus norvegicus; experiment: Neurotoxicity in albino Sprague-Dawley rat assessed as behavioral impairment at 30 mg/kg, po after 1 hr by rotorod test; format: toxicity, organism-based; conditions: in vivo
[24] = test system: Rattus norvegicus; experiment: Neurotoxicity in albino Sprague-Dawley rat assessed as behavioral impairment at 30 mg/kg, ip after 2 hrs by rotorod test; format: toxicity, organism-based; conditions: in vivo
[25] = test system: Rattus norvegicus; experiment: Neurotoxicity in albino Sprague-Dawley rat assessed as behavioral impairment at 30 mg/kg, po after 2 hrs by rotorod test; format: toxicity, organism-based; conditions: in vivo
[26] = test system: Mus musculus; experiment: Anticonvulsant activity in albino CF1 mouse assessed as protection against maximal electroshock-induced seizures at 100 mg/kg, ip after 0.5 hrs; format: functional, organism-based
[27] = test system: Mus musculus; experiment: Neurotoxicity in albino CF1 mouse assessed as behavioral impairment at 300 mg/kg, ip after 0.5 hrs by rotorod test; format: toxicity, organism-based; conditions: in vivo
[28] = test system: Mus musculus; experiment: Neurotoxicity in albino CF1 mouse assessed as behavioral impairment at 300 mg/kg, ip after 2 hrs by rotorod test; format: toxicity, organism-based; conditions: in vivo
[29] = test system: Mus musculus; experiment: Anticonvulsant activity in ip dosed albino CF1 mouse assessed as protection against subcutaneous metrazol-induced seizures; format: functional
[30] = test system: Mus musculus; experiment: Anticonvulsant activity in ip dosed albino CF1 mouse assessed as protection against maximal electroshock-induced seizures by measuring time to peak effect; format: functional
[31] = test system: Mus musculus; experiment: Anticonvulsant activity in ip dosed albino CF1 mouse assessed as protection against subcutaneous metrazol-induced seizures by measuring time to peak effect; format: functional
[32] = test system: Mus musculus; experiment: Anticonvulsant activity in ip dosed albino CF1 mouse assessed as protection against 6 Hz current-induced seizure by measuring time to peak effect; format: functional
[33] = Neurotoxicity in ip dosed albino CF1 mouse assessed as motor impairment by rotorod test; format: toxicity, organism-based; conditions: in vivo
[34] = test system: Mus musculus; experiment: Anticonvulsant activity in ip dosed albino CF1 mouse assessed as protection against maximal electroshock-induced seizures; format: functional
[35] = Protective index, ratio of TD50 for neurotoxicity in ip dosed albino CF1 mouse to ED50 for anticonvulsant activity in ip dosed maximal electroshock-induced seizure albino CF1 mouse model; format: toxicity, organism-based; conditions: in vivo, read-out: Ratio TD50/ED50
[36] = test system: Rattus norvegicus; experiment: Anticonvulsant activity in albino Sprague-Dawley rat assessed as protection against maximal electroshock-induced seizures at 30 mg/kg, ip after 0.25 hrs; format: functional, organism-based
[37] = test system: Rattus norvegicus; experiment: Anticonvulsant activity in albino Sprague-Dawley rat assessed as protection against maximal electroshock-induced seizures at 30 mg/kg, ip after 0.5 hrs; format: functional, organism-based
[38] = Protective index, ratio of TD50 for neurotoxicity in ip dosed albino CF1 mouse to ED50 for anticonvulsant activity in ip dosed […] metrazol-induced seizure albino CF1 mouse model; format: toxicity, organism-based; conditions: in vivo, read-out: Ratio TD50/ED50
[39] = test system: Mus musculus; experiment: Anticonvulsant activity in ip dosed albino CF1 mouse assessed as protection against 6 Hz current-induced seizures by psychomotor test; format: functional
[40] = test system: Rattus norvegicus; experiment: Anticonvulsant activity in albino Sprague-Dawley rat assessed as protection against maximal electroshock-induced seizures at 30 mg/kg, po after 0.25 hrs; format: functional, organism-based
[41] = test system: Rattus norvegicus; experiment: Anticonvulsant activity in albino Sprague-Dawley rat assessed as protection against maximal electroshock-induced seizures at 30 mg/kg, ip after 2 hrs; format: functional, organism-based
[42] = test system: Rattus norvegicus; experiment: Anticonvulsant activity in albino Sprague-Dawley rat assessed as protection against maximal electroshock-induced seizures at 30 mg/kg, ip after 1 hr; format: functional, organism-based

Row | SMILES | Activity [1] | Activity [2] | Activity [3] | Activity [4] | Activity [6] | Activity [9] | Activity [12] | Activity [13] | Activity [14] | Activity [17] | Activity [18] | Activity [19] | Activity [20] | Activity [21] | Activity [22] | Activity [23] | Activity [24] | Activity [25] | Activity [26] | Activity [27] | also measured
1 | CC(C)(C)COC(=O)NCCCn1ccnc1 | inactive | inactive | inactive | Active | inactive | inactive | Non-toxic | Non-toxic | Non-toxic | inactive | Non-toxic | Non-toxic | Non-toxic | Non-toxic | Non-toxic | Non-toxic | Non-toxic | Non-toxic |  |  | Activity [5]: Active; Activity [7]: inactive; Activity [8]: inactive; Activity [10]: inactive; Activity [11]: inactive; Activity [15]: inactive; Activity [16]: inactive
2 | CCCCC(CC)COC(=O)NCCCn1ccnc1 (stereo not given) | inactive |  | inactive |  | inactive | inactive | Non-toxic | Non-toxic | Non-toxic |  |  |  |  |  |  |  |  |  | Active | Toxic | Activity [10]: inactive; Activity [28]: Toxic
3 | CCCC(CCC)C(=O)O [VALPROIC ACID] |  |  |  |  |  |  |  |  |  |  |  |  |  |  |  |  |  |  |  |  | ED50 [29]: 646 mg/kg; Time [30]: 0.5 h; Time [31]: 0.5 h; Time [32]: 0.5 h; TD50 [33]: 784 mg/kg
4 | NC(=O)OCC(COC(N)=O)c1ccccc1 [FELBAMATE] |  |  |  |  |  |  |  |  |  |  |  |  |  |  |  |  |  |  |  |  | ED50 [34]: 25 mg/kg; selectivity ratio [35]: > 20; ED50 [29]: > 250 mg/kg; Time [30]: 0.5 h; Time [31]: 0.5 h; Time [32]: 0.5 h; TD50 [33]: > 500 mg/kg
5 | O=C(NCCCn1ccnc1)OCCc1ccccc1 | Active | Active | inactive | Active | inactive | inactive | Non-toxic | Non-toxic | Non-toxic | inactive | Non-toxic | Non-toxic | Non-toxic | Non-toxic | Non-toxic | Non-toxic | Non-toxic | Non-toxic | Active | Toxic | Activity [5]: Active; Activity [7]: Active; Activity [28]: Toxic; Activity [36]: Active; Activity [37]: Active; ED50 [34]: 14 mg/kg; selectivity ratio [35]: 5.5; ED50 [29]: > 80 mg/kg; selectivity ratio [38]: 0.96; Time [30]: 0.5 h; Time [31]: 0.5 h; ED50 [39]: inactive; Time [32]: 0.5 h; TD50 [33]: 77 mg/kg
6 | CC(C)(C)CCOC(=O)NCCCn1ccnc1 |  |  | inactive | Active | inactive | inactive | Non-toxic | Non-toxic | Non-toxic | inactive | Non-toxic | Non-toxic | Non-toxic | Non-toxic | Non-toxic | Non-toxic | Non-toxic | Non-toxic | Active | Toxic | Activity [28]: Toxic; Activity [40]: inactive; Activity [15]: inactive; Activity [16]: inactive; Activity [41]: inactive
7 | CCC(C)C(C)OC(=O)NCCCn1ccnc1 (stereo not given) | inactive | Active | inactive | Active | inactive | inactive | Non-toxic | Non-toxic | Non-toxic | inactive | Non-toxic | Non-toxic | Non-toxic | Non-toxic | Non-toxic | Non-toxic | Non-toxic | Non-toxic | Active | Toxic | Activity [10]: inactive; Activity [40]: inactive; Activity [15]: inactive; Activity [42]: inactive; Activity [41]: inactive
